Experimental data reported in patent publication US6603023B2 (priority 1996, dated 2003).
Read-outs that look alike come from different tables or passages of the source. Marks after values point to notes of the source that are not given here. Starred links: 1 amine or outer side, 2 acyl side, 3 side chain; linkers in the order of their positions; H or OH if unused. Positions of bridges follow the written chain, without caps; N, C: chain ends. Non-standard residues stand in square brackets, D forms with d. Residues, ends and D or L forms follow the SMILES beside them. Chains are numbered I, II in the order given. Actinocin(9to1) = Cc1c2oc3c(C)ccc(C(=O)[*:1])c3nc-2c(C(=O)[*:2])c(N)c1=O; NMeV = CN[C@H](C(=O)O)C(C)C; Sar = CNCC(=O)O

Experiments:
CCRF-CEM/VM1 = assay: cells; assay type: cell-based, human; conditions: for (D)/(A) IC50 ratio: CCRF-CEM/VM1 vs CCRF-CEM
Summary of the method: (§1)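 XTT microculture tetrazolium readout, duplicate wells: 72 h compound incubation, then PMS-XTT (0.025 mM PMS) added, 4 h 37 °C, A450 and A630 measured. Suspension cells in RPMI-1640/10% FBS, 5×10^4 cells/mL; resistant sublines maintained with selecting drug.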

CCRF-CEM/Taxol® = assay: cells; assay type: cell-based, human; conditions: for IC50: XTT, 72 h, read-out: IC50
Summary of the method: as §1

CCRF-CEM/VBL100 = assay: cells; assay type: cell-based, human; conditions: for (B)/(A) IC50 ratio: CCRF-CEM/VBL100 vs CCRF-CEM
Summary of the method: as §1

[1] = test system: CCRF-CEM human T-cell acute lymphoblastic leukemia cell line; assay: XTT cytotoxicity (cell growth inhibition), CCRF-CEM
Summary of the method: as §1

P388/Adr = assay: cells; assay type: cell-based, murine; conditions: Table 1C; for folds of resistance (IC50 ratio vs parent cell line): P388/Adr vs P388/O; for IC50: XTT, 72 h, read-out: IC50
Protocol: (§2) The drug-resistant cell lines were continuously cultured in the presence of the selecting agent, AD, DX, VBL or VM to maintain the drug resistant phenotypes. […] All cells were cultured in RPMI 1640-10% FBS at 37° C. 5% CO2 (see below).
(§3) The cells were cultured at an initial density of 5×10^4 cells/mL. They were maintained in a 5% CO2-humidified atmosphere at 37° C. in RPMI-1640 medium (GIBCO-BRL, Gaithersburg, Md.) containing penicillin (100 U/mL), streptomycin ([…]) (GIBCO-BRL) and 10% heat inactivate fetal bovine serum. Culture for cell suspension (such as for CCRF-CEM, P388 and sublines), were performed by the XTT-microculture tetrazonium method (Scudiero, D. A. et al., Cancer Res. 1988, 48, 4827-4833) in duplicate in 96-well microtiter plates.
(§4) 2′,3′-Bis(methoxy-4-nitro-5-sufophenyl)-5-[(phenylamino)carbonyl]2H-tetrazolium hyudroxide (XTT) was prepared at 1 mg/mL in prewarmed (37° C.) medium without serum. Phenazine methosulfate (PMS) and fresh XTT were mixed together to obtain 0.025 mM PMS-XTT solution (25 μL of the stock 5 mM PMS was added per 5 mL of 1 mg/mL XTT). Following a 72 h incubation, 50 μL of the assay aliquots were added to each well of the cell culture. After incubation at 37° C. for 4 h, absorbance at 450 nm and 630 nm was measured with a microplate reader (EL340, Bio-Tek Instruments, Inc., Winooski, Vt.).

MCF-7 = assay: SRB cytotoxicity, MCF-7; assay type: cell-based, human; conditions: Table 1C; SRB, 72 h; read-out: IC50
Protocol: (§5) The cytotoxicity of the drug toward the monolayer cell cultures (such as DC-3F, MCF-7, SK-N-As and sublines) was determined in 96-well microtiter plates by the SRB method as described by Skehan and co-workers (Skehan, P., et al., J. Natl. Cancer Inst. 1990, 82, 1107-1112) for measuring the cellular protein content. Cultures were fixed with trichloroacetic acid and then stained for 30 min with 0.4% suforhodamine B dissolved in 1% acetic acid. Unbound dye was removed by acetic acid washes, and the protein-bound dye was extracted with an unbuffered Tris base (tris(hydroxy-methyl)aminomethane) for determination of absorbance at 570 nm in a 96-well microtiter plate reader. The experiments were carried out in duplicate. Each run entailed six to seven concentrations of the tested drugs. Data were analyzed with the median-effect plot (Chou, T.-C. & Talalay, P. T. (1984) Adv. Enzyme Regul. 22, 27-55) using a previously described computer program (Chou, J., & Chou T.-C. 1987, Dose-effect analysis with microcomputers: Quantitation of ED50, synergism, antagonism, low-dose risk, reception-ligand binding and enzyme kinetics, IBM-PC software and manual, Biosoft, Cambridge, U.K.).

SK-N-FI = assay: cells; assay type: cell-based, human; conditions: Table 1C; for folds of resistance (IC50 ratio vs parent cell line): SK-N-FI vs SK-N-As; for IC50: SRB, 72 h, read-out: IC50
Protocol: as §2, §5

murine leukemic P388/0 = assay: XTT cytotoxicity, P388/0; assay type: cell-based; conditions: Table 1C; XTT, 72 h; read-out: IC50
Protocol: (§6) The DC-3F hamster lung fibroblast cell line and its actinomycin D-selected sublines (DC-3F/ADII and DC-3F/ADX) were obtained from the Memorial Sloan-Kettering Cancer Center (MSKCC).
as §2, §3, §4

DC-3F/ADX = assay: cells; assay type: cell-based, hamster; conditions: for folds of resistance (IC50 ratio vs parent cell line): DC-3F/ADX vs DC-3F; for IC50: read-out: IC50
Protocol: as §6, §2, §5
(§7) Concerning Table 3, experiments were carried out using the cell lines DC-3F (parent hamster lung cells), DC-3F/ADII (moderate multidrug-resistant (MDR) cells) and DC-3F/ADX (very strong MDR cells).

DC-3F/ADII = assay: SRB cytotoxicity, DC-3F/ADII; assay type: cell-based, hamster; conditions: Table 3; read-out: IC50
Protocol: as §6, §2, §5, §7

[2] = test system: DC-3F hamster lung fibroblast cell line; assay: SRB cytotoxicity, DC-3F; assay type: cell-based; conditions: read-out: IC50
Protocol: as §6, §2, §5

MCF-7/Adr = assay: cells; assay type: cell-based, human; conditions: Table 1C; for folds of resistance (IC50 ratio vs parent cell line): MCF-7/Adr vs MCF-7; for IC50: SRB, 72 h, read-out: IC50
Protocol: Cultures were fixed with trichloroacetic acid and then stained for 30 min with 0.4% suforhodamine B dissolved in 1% acetic acid. Unbound dye was removed by acetic acid washes, and the protein-bound dye was extracted with an unbuffered Tris base (tris(hydroxy-methyl)aminomethane) for determination of absorbance at 570 nm in a 96-well microtiter plate reader. The experiments were carried out in duplicate. Each run entailed six to seven concentrations of the tested drugs.

[3] = test system: human neuroblastoma SK-N-As; assay: SRB cytotoxicity, SK-N-As; assay type: cell-based; conditions: Table 1C; SRB, 72 h; read-out: IC50
Protocol: as §6, §2, §5

[4] = ester bond
[5] = Table 1A, XTT, 72 h, read-out: IC50
[6] = Table 6, single determinations, read-out: IC50

SMILES	(D)/(A) IC50 ratio (CCRF-CEM/VM1; Table 1A)	IC50 (CCRF-CEM/VM1; [5])	IC50 (CCRF-CEM/Taxol®; Table 1A)	(B)/(A) IC50 ratio (CCRF-CEM/VBL100; Table 1A)	IC50 (CCRF-CEM/VBL100; [5])	IC50 ([1]; Table 1A, XTT, 72 h)	folds of resistance (IC50 ratio vs parent cell line) (P388/Adr)	IC50 (P388/Adr)	IC50 (MCF-7)	folds of resistance (IC50 ratio vs parent cell line) (SK-N-FI)	IC50 (SK-N-FI)	IC50 (murine leukemic P388/0)	folds of resistance (IC50 ratio vs parent cell line) (DC-3F/ADX; Table 1C)	IC50 (DC-3F/ADX; Table 1C, SRB, 72 h)	IC50 (DC-3F/ADX; Table 3)	IC50 (DC-3F/ADII)	IC50 ([2]; Table 1C, SRB, 72 h)	IC50 ([2]; Table 3)	folds of resistance (IC50 ratio vs parent cell line) (MCF-7/Adr)	IC50 (MCF-7/Adr)	other results
C/C(=C\c1csc(C)n1)[C@@H]1C/C=C\CCC[C@H](C)[C@H](O)[C@@H](C)C(=O)C(C)(C)[C@@H](O)CC(=O)O1 [Desoxyepothilone A, desoxyepothilone A]	0.59	13 nM	15 nM	0.55	12 nM	22 nM	(0.59x)	12.5 nM	32 nM	(3.1x)	223 nM	21.3 nM	(3.9x)	42 nM	42 nM	19.8 nM	11 nM	10.6 nM	(4.5x)	144 nM	IC50 (CCRF-CEM/VM1; Table 1, XTT, read-out: IC50): 13 nM; IC50 (CCRF-CEM/VM1; Table 2, CCR-CEM/VM-1, read-out: IC50): 13 nM; (C)/(A) ratio (fold resistance >1, collateral sensitivity <1) (CCRF-CEM/VM1; Table 2A): (0.59)^b; IC50 (CCRF-CEM/VM1; Table 2A, Topo II gene mutated cell line, read-out: IC50 (C)): 13 nM; IC50 (CCRF-CEM/VM1; [6]): 13 nM; (C)/(A) IC50 ratio (CCRF-CEM/Taxol®; Table 1A, CCRF-CEM/Taxol vs CCRF-CEM): 0.7; IC50 (CCRF-CEM/VBL100; Table 1, XTT, read-out: IC50): 12 nM; IC50 (CCRF-CEM/VBL100; Table 2, CCRF-CEM/VLB, read-out: IC50): 12 nM; (B)/(A) ratio (fold resistance >1, collateral sensitivity <1) (CCRF-CEM/VBL100; Table 2A): (0.55)^b; IC50 (CCRF-CEM/VBL100; Table 2A, MDR cell line, read-out: IC50 (B)): 12 nM; IC50 (CCRF-CEM/VBL100; [6]): 12 nM; IC50 (CCRF-CEM/VBL100; Table 7, CEM/VBL, read-out: IC50): 12 nM; IC50 (CCRF-CEM/VBL100; read-out: IC50): 12 nM; IC50 [1]: 22 nM; IC50 ([1]; Table 1, XTT): 22 nM; IC50 ([1]; Table 2): 2 nM; IC50 ([1]; Table 6, single determinations): 22 nM; IC50 ([1]; Table 7, CEM): 22 nM; IC50 ([1]; read-out: IC50 (A), Table 2A, parent cell line): 22 nM; IC50 [3]: 73 nM
Cc1c2oc3c(C)ccc(C(=O)N[C@@H]4C(=O)N[C@H](C(C)C)C(=O)N5CCC[C@H]5C(=O)N(C)CC(=O)N(C)[C@@H](C(C)C)C(=O)O[C@@H]4C)c3nc-2c(C(=O)N[C@@H]2C(=O)N[C@H](C(C)C)C(=O)N3CCC[C@H]3C(=O)N(C)CC(=O)N(C)[C@@H](C(C)C)C(=O)O[C@@H]2C)c(N)c1=O [Actinomycin D, actinomycin D] (I: T[dV]P[Sar][NMeV] / II: T[dV]P[Sar][NMeV]; ester I:1-I:C, II:1-II:C; linker I:N-II:N via Actinocin(9to1))	0.8	0.27 nM	1.3 nM	109	38 nM	0.35 nM	(8x)	1.2 nM	0.68 nM	(14x)	11.9 nM	0.15 nM	(13000x)	572 nM	486 nM	8.2 nM	0.44 nM	0.058 nM	(2.5x)	1.67 nM	(C)/(A) IC50 ratio (CCRF-CEM/Taxol®): 3.7; fold resistance vs parent DC-3F (DC-3F/ADX; DC-3F/ADX cells, listed as AD): 13,000 fold; IC50 ([2]; Table 3, value in parentheses): 0.0582 nM; IC50 [3]: 0.85 nM
C/C(=C\c1csc(C)n1)[C@@H]1C/C=C\CCCC[C@H](O[Si](C)(C)C(C)(C)C)[C@@H](C)C(=O)C(C)(C)[C@@H](O[Si](C)(C)C(C)(C)C)CC(=O)O1																					ring closure, yield of all isomers ([4]; from C/C(=C\c1csc(C)n1)[C@@H](O)C/C=C\CCCC[C@H](O[Si](C)(C)C(C)(C)C)[C@@H](C)C(=O)C(C)(C)[C@H](CC(=O)O)O[Si](C)(C)C(C)(C)C, DCC/DMAP/DMAP.HCl, CHCl3, 0.32 mM, 80.0 °C, 20.0 h): 75%
CC[Si](CC)(CC)O[C@H]1CC(=O)O[C@H](/C(C)=C/c2csc(C)n2)C/C=C(/C)CCC[C@H](C)[C@H](OC(=O)OCC(Cl)(Cl)Cl)[C@@H](C)C(=O)C1(C)C																					ring closure, yield of all isomers ([4]; from CC[Si](CC)(CC)O[C@@H](CC(=O)O)C(C)(C)C(=O)[C@H](C)[C@@H](OC(=O)OCC(Cl)(Cl)Cl)[C@@H](C)CCC/C(C)=C\C[C@H](O)/C(C)=C/c1csc(C)n1, 2,4,6-trichlorobenzoyl chloride / Et3N / DMAP, toluene, 0.79 mM, 25.0 °C, 3.5 h): 78%; ring closure, yield of all isomers ([4]; from CC[Si](CC)(CC)O[C@@H](CC(=O)O)C(C)(C)C(=O)[C@H](C)[C@@H](OC(=O)OCC(Cl)(Cl)Cl)[C@@H](C)CCC/C(C)=C\C[C@H](O)/C(C)=C/c1csc(C)n1, 2,4,6-trichlorobenzoyl chloride/Et3N/DMAP, toluene, 1.32 mM, 25.0 °C, 3.75 h): 78%
